Like-named read-outs stand apart in the source and are kept apart here.
Experiments:
clinical [1] = conditions: both, human, plasma, % fu, fraction unbound (mean (SD)), Day 1, 2 h
Procedure: (§1) Participants entered the study site on the morning of Day 1 and remained there until after collection of the 96 hours PK sample on Day 5. […] In addition, blood samples for determination of the plasma protein binding (PPB) were collected.
(§2) For all cohorts, 2-hours fraction unbound values were used to derive the unbound plasma concentrations and these unbound concentrations were used to derive unbound PK parameters.

plasma protein = test: clinical; conditions: Day 1, 2 h
Procedure: as §1, §2

[2] = for mean AUC∞ compared to normal hepatic function / mean Cmax compared to normal hepatic function / mean Cmax,unbound compared to normal hepatic function: arithmetic means
From the text: (§3) Participants were screened for eligibility for study entry. The diagnosis of hepatic impairment was based on medical history, a Child-Pugh Clinical Assessment Score of 5 to 6 (Grade A, mild hepatic impairment), 7 to 9 (Grade B, moderate hepatic impairment), and 10 to 15 (Grade C, severe hepatic impairment), and the presence of physical signs (liver firmness to palpitation, splenic enlargement, spider angioma, palmar erythema, parotid hypertrophy, testicular atrophy, or gynecomastia) or other modalities (computed tomography, ultrasound, magnetic resonance imaging, radionuclide liver/spleen scan or abdominal laparoscopy, or liver biopsy). The underlying disease leading to hepatic impairment was documented (e.g., hepatitis B, hepatitis C, alcoholic steatohepatitis, nonalcoholic fatty liver disease [hereditary/metabolic], or other). Hepatic encephalopathy grading was done by the Principal Investigator. The individual components of the Child-Pugh Clinical Assessment Score were documented. Participants with liver transplant were excluded.
(§4) The clinical study of Example 1 consisted of a screening phase (within 21 days before study intervention administration); an open-label treatment phase (Day 1 to Day 5) including the end-of-study (EOS) or withdrawal assessments (performed on Day 5 or upon early withdrawal). The study duration for each participant was approximately 4 weeks from screening (Day-21 to Day-1) to EOS assessments.
(§5) Healthy men and women between 18 and 79 years of age, inclusive; with a body mass index (BMI) between 18 and 38 kg/m^2, inclusive, and a body weight of not less than 50 kg were enrolled in the study according to their hepatic function. The degree of hepatic impairment was based on Child Pugh's classification. Using this classification, participants were grouped on the basis of 2 clinical features (hepatic encephalopathy and ascites) and 3 laboratory-based parameters (albumin, bilirubin, and prothrombin time).
(§6) The study included 24 human patients divided into 3 different cohorts: • Cohort 1:8 healthy participants with normal hepatic function and no evidence of liver damage and no evidence of liver damage, • Cohort 2:8 participants with mild hepatic impairment (having a Child-Pugh score of 5 to 6), and • Cohort 3:8 participants with moderate hepatic impairment (Child-Pugh score of 7 to 9).
(§7) Based on hepatic impairment classified during screening, 8 participants with mild hepatic impairment (Cohort 2) and 8 participants with moderate hepatic impairment (Cohort 3) were enrolled. After 8 participants each in Cohort 2 and Cohort 3 had completed study related procedures including the 96 hours PK sample, participants with normal hepatic function (Cohort 1) were enrolled. A group matching procedure was used to demographically match healthy participants having normal hepatic function with respect to sex, age, and weight to the participants enrolled in Cohort 2 and Cohort 3. […] Participants in the control group (Cohort 1) who tested positive for Hepatitis B surface antigen (HbsAg) or Hepatitis C antibodies were not permitted in the study.
(§8) In the normal hepatic function group (Cohort 1), at least 3 participants with an individual value above and at least 3 participants with an individual value below the mean age/mean body weight values of the combined mild (Cohort 2) and moderate (Cohort 3) hepatic impairment groups were enrolled. Two to 4 females were enrolled in each of the cohorts.
(§9) Participants remained in supine position from the predose assessments until 4-hour postdose but were allowed short upright stints for pressing needs (e.g., bathroom visits) and during consumption of meal.

clinical [3] = conditions: both, human, in vivo
From the text: as §3, §4, §5, §6, §7, §8, §9

[4] = Estimated contribution of active metabolites to efficacy of seltorexant; conditions: active metabolite
[5] = 10 mg, Cohort 3 moderate hepatic impairment
[6] = 20 mg, Cohort 1 normal hepatic function
[7] = 20 mg, Cohort 2 mild hepatic impairment
[8] = Cohort 1 normal hepatic function
[9] = Cohort 2 mild hepatic impairment
[10] = Cohort 3 moderate hepatic impairment
[11] = dose normalized moderate hepatic impairment vs normal, total
[12] = dose normalized moderate hepatic impairment vs normal, unbound
[13] = mild hepatic impairment vs normal, total
[14] = mild hepatic impairment vs normal, unbound
[15] = 10 mg, AUClast, geometric mean, Cohort 3 (Test) moderate hepatic impairment, 10 mg dose normalized to 20 mg, total
[16] = 10 mg, AUClast, geometric mean, Cohort 3 (Test) moderate hepatic impairment, 10 mg dose normalized to 20 mg, unbound
[17] = 10 mg, AUC∞ (mean (SD)), Cohort 3 moderate hepatic impairment, 10 mg dose normalized to 20 mg, total in plasma
[18] = 10 mg, AUC∞, geometric mean, Cohort 3 (Test) moderate hepatic impairment, 10 mg dose normalized to 20 mg, total
[19] = 10 mg, AUC∞, geometric mean, Cohort 3 (Test) moderate hepatic impairment, 10 mg dose normalized to 20 mg, unbound
[20] = 10 mg, Cmax, geometric mean, Cohort 3 (Test) moderate hepatic impairment, 10 mg dose normalized to 20 mg, total
[21] = 10 mg, Cmax, geometric mean, Cohort 3 (Test) moderate hepatic impairment, 10 mg dose normalized to 20 mg, unbound
[22] = 10 mg, […], Cohort 3 moderate hepatic impairment, 10 mg dose normalized to 20 mg, total in plasma
[23] = 20 mg, AUClast, geometric mean, Cohort 1 (Reference) normal hepatic function, total
[24] = 20 mg, AUClast, geometric mean, Cohort 1 (Reference) normal hepatic function, unbound
[25] = 20 mg, AUClast, geometric mean, Cohort 2 (Test) mild hepatic impairment, total
[26] = 20 mg, AUClast, geometric mean, Cohort 2 (Test) mild hepatic impairment, unbound
[27] = 20 mg, AUC∞, geometric mean, Cohort 1 (Reference) normal hepatic function, total
[28] = 20 mg, AUC∞, geometric mean, Cohort 1 (Reference) normal hepatic function, unbound
[29] = 20 mg, AUC∞, geometric mean, Cohort 2 (Test) mild hepatic impairment, total
[30] = 20 mg, AUC∞, geometric mean, Cohort 2 (Test) mild hepatic impairment, unbound
[31] = 20 mg, Cmax, geometric mean, Cohort 1 (Reference) normal hepatic function, total
[32] = 20 mg, Cmax, geometric mean, Cohort 1 (Reference) normal hepatic function, unbound
[33] = 20 mg, Cmax, geometric mean, Cohort 2 (Test) mild hepatic impairment, total
[34] = 20 mg, Cmax, geometric mean, Cohort 2 (Test) mild hepatic impairment, unbound

## Cc1cc(CO)nc(N2CC3CN(C(=O)c4c(F)cccc4-n4nccn4)CC3C2)n1 (stereo not shown) [M12]
Clinical [1]; [5]
  fraction unbound at 2 h: 0.114
Clinical [1]; [6]
  fraction unbound at 2 h: 0.0545
Clinical [1]; [7]
  fraction unbound at 2 h: 0.0707
Plasma protein; [8]
  % fb (mean (SD)): 94.6 (1.91) %
Plasma protein; [9]
  % fb (mean (SD)): 92.9 (4.58) %
Plasma protein; [10]
  % fb (mean (SD)): 88.6 (3.84) %
[2]; [11]
  mean AUC∞ compared to normal hepatic function: comparable
  mean Cmax compared to normal hepatic function: 0.78 fold
  Cmax compared to normal hepatic function, based on GMR: 0.79 fold
[2]; [12]
  mean Cmax,unbound compared to normal hepatic function: 1.71 fold
[2]; [13]
  mean AUC∞ compared to normal hepatic function: 1.80 fold
  mean Cmax compared to normal hepatic function: comparable
  Cmax compared to normal hepatic function, based on GMR: ~1.11 fold
[2]; [14]
  mean Cmax,unbound compared to normal hepatic function: 1.46 fold
  AUC∞,unbound compared to normal hepatic function, based on GMR: ~1.99 fold
Clinical [3]; [15]
  AUC(0-t): 2380 ng·h/mL
Clinical [3]; [16]
  AUC(0-t): 258 ng·h/mL
Clinical [3]; [17]
  AUC(0-inf): 2580 ng·h/mL
Clinical [3]; [18]
  AUC(0-inf): 2400 ng·h/mL
Clinical [3]; [19]
  AUC(0-inf): 262 ng·h/mL
Clinical [3]; [20]
  Cmax: 253 ng/mL
Clinical [3]; [21]
  Cmax: 27.5 ng/mL
Clinical [3]; [22]
  AUC(0-t): 2550 ng·h/mL
  Cmax: 261 ng/mL
Clinical [3]; [23]
  AUC(0-t): 2310 ng·h/mL
Clinical [3]; [24]
  AUC(0-t): 118 ng·h/mL
Clinical [3]; [25]
  AUC(0-t): 3950 ng·h/mL
Clinical [3]; [26]
  AUC(0-t): 234 ng·h/mL
Clinical [3]; [27]
  AUC(0-inf): 2320 ng·h/mL
Clinical [3]; [28]
  AUC(0-inf): 119 ng·h/mL
Clinical [3]; [29]
  AUC(0-inf): 3980 ng·h/mL
Clinical [3]; [30]
  AUC(0-inf): 236 ng·h/mL
Clinical [3]; [31]
  Cmax: 320 ng/mL
Clinical [3]; [32]
  Cmax: 16.3 ng/mL
Clinical [3]; [33]
  Cmax: 355 ng/mL
Clinical [3]; [34]
  Cmax: 21 ng/mL
Clinical [3]; po, 10 mg
  AUC(0-t): 1280 ng·h/mL
  Cmax: 131 ng/mL
  Tmax: 2.25 h
  half-life: 4.07 h
Clinical [3]; po, 20 mg
  AUC(0-inf): 4860 ng·h/mL
  AUC(0-t): 4830 ng·h/mL
  Cmax: 368 ng/mL
  half-life: 3.44 h

## Cc1nc(N2CC3CN(C(=O)c4c(F)cccc4-n4nccn4)CC3C2)nc(C)c1O (stereo not shown) [M16]
Clinical [1]; [5]
  fraction unbound at 2 h: 0.0901
Clinical [1]; [6]
  fraction unbound at 2 h: 0.04
Clinical [1]; [7]
  fraction unbound at 2 h: 0.0568
Plasma protein; [8]
  % fb (mean (SD)): 96.0 (1.43) %
Plasma protein; [9]
  % fb (mean (SD)): 94.3 (3.95) %
Plasma protein; [10]
  % fb (mean (SD)): 91.0 (3.14) %
[4]
  contribution to efficacy of seltorexant (activity): < 4%
[2]; [11]
  mean AUC∞ compared to normal hepatic function: 0.74 fold
  mean Cmax compared to normal hepatic function: 0.62 fold
  AUC∞ compared to normal hepatic function, based on GMR: ~0.83 fold
[2]; [12]
  AUClast,unbound compared to normal hepatic function, based on GMR: ~1.82 fold
  Cmax,unbound compared to normal hepatic function, based on GMR: ~1.48 fold
[2]; [13]
  mean AUC∞ compared to normal hepatic function: comparable
  mean Cmax compared to normal hepatic function: 0.75 fold
[2]; [14]
  AUClast,unbound compared to normal hepatic function, based on GMR: ~1.25 fold
  Cmax,unbound compared to normal hepatic function, based on GMR: 0.96 fold
Clinical [3]; [15]
  AUC(0-t): 620 ng·h/mL
Clinical [3]; [16]
  AUC(0-t): 53 ng·h/mL
Clinical [3]; [17]
  AUC(0-inf): 683 ng·h/mL
Clinical [3]; [18]
  AUC(0-inf): 674 ng·h/mL
Clinical [3]; [19]
  AUC(0-inf): 57.6 ng·h/mL
Clinical [3]; [20]
  Cmax: 41.8 ng/mL
Clinical [3]; [21]
  Cmax: 3.57 ng/mL
Clinical [3]; [22]
  AUC(0-t): 631 ng·h/mL
  Cmax: 43 ng/mL
Clinical [3]; [23]
  AUC(0-t): 778 ng·h/mL
Clinical [3]; [24]
  AUC(0-t): 29 ng·h/mL
Clinical [3]; [25]
  AUC(0-t): 783 ng·h/mL
Clinical [3]; [26]
  AUC(0-t): 36.3 ng·h/mL
Clinical [3]; [27]
  AUC(0-inf): 812 ng·h/mL
Clinical [3]; [28]
  AUC(0-inf): 30.3 ng·h/mL
Clinical [3]; [29]
  AUC(0-inf): 807 ng·h/mL
Clinical [3]; [30]
  AUC(0-inf): 37.4 ng·h/mL
Clinical [3]; [31]
  Cmax: 64.6 ng/mL
Clinical [3]; [32]
  Cmax: 2.41 ng/mL
Clinical [3]; [33]
  Cmax: 50 ng/mL
Clinical [3]; [34]
  Cmax: 2.32 ng/mL
Clinical [3]; po, 10 mg
  AUC(0-inf): 342 ng·h/mL
  AUC(0-t): 315 ng·h/mL
  Cmax: 21.5 ng/mL
  Tmax: 2.5 h
  half-life: 10.2 h
Clinical [3]; po, 20 mg
  AUC(0-inf): 851 ng·h/mL
  AUC(0-t): 827 ng·h/mL
  Cmax: 51.5 ng/mL
  Tmax: 2 h
  half-life: 13.4 h

From patent US20250082635A1 (Janssen Pharmaceutica NV, priority 2023, published 2025)
